The source of these data is patent US20230106519A1, “GOLD(III)-BIGUANIDE PRODRUGS, METHODS OF PREPARATION AND USES THEREOF” (National University of Singapore, priority 2020, published 2023).

“Also recorded” adds a separate entry of the source. Like-named read-outs stand apart in the source and are kept apart here.

Series [1] addresses T1, rat liver TrxR (Rattus norvegicus, UniProt O89049).
T1 sequence (O89049 1-499): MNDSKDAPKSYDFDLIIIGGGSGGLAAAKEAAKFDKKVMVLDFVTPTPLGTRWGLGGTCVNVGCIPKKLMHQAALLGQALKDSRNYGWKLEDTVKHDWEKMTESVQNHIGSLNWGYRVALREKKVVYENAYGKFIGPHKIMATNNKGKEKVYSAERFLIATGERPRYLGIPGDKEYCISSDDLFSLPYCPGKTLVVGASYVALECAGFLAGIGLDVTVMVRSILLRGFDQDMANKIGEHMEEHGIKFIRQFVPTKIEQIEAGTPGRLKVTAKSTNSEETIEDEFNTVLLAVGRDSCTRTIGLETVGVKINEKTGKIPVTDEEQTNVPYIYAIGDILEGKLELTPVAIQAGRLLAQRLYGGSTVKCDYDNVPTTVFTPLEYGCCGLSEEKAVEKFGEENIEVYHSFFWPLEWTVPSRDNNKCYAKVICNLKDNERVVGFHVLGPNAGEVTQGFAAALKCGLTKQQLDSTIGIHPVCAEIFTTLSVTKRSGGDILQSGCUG
The experiment in a line: Thioredoxin reductase inhibition, DTNB reduction assay.

Series [2] relates to MDA-MB-231 cells. The experiment in a line: Annexin V/PI apoptosis assay. Conditions: MDA-MB-231, 24 hours, equipotent concentrations.
Series [3] deals with A2780cisR (ovarian carcinoma). Kind of series: MTT cytotoxicity assay, A2780cisR. Conditions: for RF (Resistance Factor): IC50 (A2780cisR)/IC50 (A2780); for EC50: read-out: EC50 A2780cisR.
Series [4] concerns AC10 (human ventricular cardiomyocytes). Kind of series: MTT toxicity assay in cardiomyocytes AC10.
Series [5] relates to A2780 (ovarian carcinoma). The experiment in a line: MTT cytotoxicity assay, A2780. Conditions: read-out: EC50 A2780. A general note: Tetrazolium dyes change colour on reduction, which living cells bring about.
For series [6], the system named is MDA-MB-231 (breast adenocarcinoma). Kind of series: MTT cytotoxicity assay, MDA-MB-231. The note with it: for EC50: read-out: EC50 MDA-MB-231.
For series [7], the system named is TAMH (transforming growth factor-a transgenic mouse hepatocytes). Kind of series: MTT toxicity assay in hepatocytes TAMH. The note with it: read-out: EC50 TAMH, exposure time 72 hours.
The test system of series [8] is MDA-MB-231 cells. Kind of series: Cellular accumulation of Au by ICP-MS. Conditions: ICP-MS after 24 hour exposure at 1.4 μM.
A short description of series [9]: Reactivity towards glutathione, ligand release (HR-MS, UV-vis). Conditions: with GSH; HR-MS and UV-vis. It counts as physicochemical. The source says:
NMR- and MS-based stability studies.
Intriguingly, the reactivity of Au^III-metformin complexes towards GSH was drastically different despite their similar structures.

Series [10] is described as follows: Stability in ammonium carbonate buffer by high resolution ESI-MS. Conditions: ammonium carbonate buffer pH 7.4, 37° C., 1, 3 and 24 hours.
For series [11], the system named is MDA-MB-231 tumors. Conditions: 250 mg/kg; cited from earlier work.
Series [12] has as its system MDA-MB-231 (breast adenocarcinoma).
Series [13] can be described thus: Cyclic voltammetry.
Series [14] relates to AMPK-mTOR energy signaling pathway. The note with it: MDA-MB-231, 0.5×-2×EC50, 2, 6, 24 hours.
[15] abbreviates: MTT assay, exposure time 72 hours.

For `CN(C)C1=[NH+][Au-]2([NH]C(N)=N1)[c]1ccccc1-c1cccc[n+]12` (centres unmarked) [1met*], 0.0012 ± 0.0005 µM corresponded to half-maximal inhibition in series [1] (IC50).

As to `N.N.[Cl][Pt][Cl]` [Cisplatin], in series [2], the apoptotic cell population result is reported as “markedly lower”. The “RF (Resistance Factor)” value in [3] was 18. Further, the half-maximal effective concentration (EC50) (usually the concentration needed to bring the measured effect to its halfway point) in series [3] (setting [15]) is 11 ± 2 µM; in [4] (read-out: EC50 AC10, MTT assay, exposure time 72 hours) it was 10 ± 2 µM; in [5] (setting [15]), 0.6 ± 0.05 µM; in [6] (setting [15]), 27 ± 8 µM; in series [7], 52 ± 7 µM.

Regarding `[Cl][Au-]1([Cl])[c]2ccccc2-c2cccc[n+]21` [Compound 1, (2-phenylpyridine)AuCl2], in [2], the apoptotic cell population result was “significantly higher”. The “Cellular accumulation MDA-MB-231” value in series [8] was 0.36 ± 0.10 nmol Au/mg protein. Moreover, the “RF (Resistance Factor)” value in [3] is reported as 2. The EC50 in series [3] (setting [15]) came out at 4 ± 0.8 µM; in [5] (setting [15]) it was 2 ± 0.4 µM; in series [6] (setting [15]), 7.8 ± 1.7 µM.

For `NC1=NC(NCCc2ccccc2)=[NH+][Au-]2([NH]1)[c]1ccccc1-c1cccc[n+]12` (centres unmarked) [Compound 1phen], in series [2], the apoptotic cell population result is “no changes in apoptotic population”. Also, the “reactivity towards GSH / ligand release in words” value in series [9] is given as “release of phenformin was detected; also recorded: Only the peak at m/z 206.1622, which corresponds to free phenformin, was observed”. Moreover, the IC50 (in general, the concentration that inhibits the measured activity by half) in series [1] was 0.0031 ± 0.0015 µM. Further, in series [10], the “stability, detection of molecular ion [M]+” value was “not detected after 1 hour incubation”. For the same compound, in [6] (tested cancer cell lines, MTT 72 h), the cytotoxicity in words entry is given as “least cytotoxic representative of this series”.

On to `[Cl][Au-]1([Cl])[c]2ccccc2Cc2cccc[n+]21` [Compound 2, (2-benzylpyridine)Au^IIICl2], for which, in series [8], the “Cellular accumulation MDA-MB-231” value is 0.14 ± 0.03 nmol Au/mg protein. Also, in [3], the “RF (Resistance Factor)” value was 1. The results for the concentration for a half-maximal effect (EC50) in series [3] (setting [15]), in series [5] (setting [15]) and in [6] (setting [15]) were 7.2 ± 1.5 µM, 6.5 ± 0.8 µM and 7.1 ± 0.4 µM, respectively.

Regarding `CN(C)C1=[NH+][Au-]2([NH]C(N)=N1)[c]1ccccc1Cc1cccc[n+]12` (centres unmarked) [Compound 2met], the “reactivity towards GSH / ligand release in words” value in series [9] was “stable both in the absence and presence of GSH; also recorded: did not significantly change over time”. In [1], this compound returned an IC50 of 0.00055 ± 9e-05 µM. In [10], the “stability, detection of molecular ion [M]+” value is given as “stable for 24 hours”.

Turning to `O=C1c2cccc[c]2[Au-]([Cl])([Cl])[n+]2ccccc21` [Compound 3, (2-benzoylpyridine)Au^IIICl2], the “Cellular accumulation MDA-MB-231” value in series [8] turned out to be 0.14 ± 0.05 nmol Au/mg protein. In series [3], the “RF (Resistance Factor)” value came out at 1. Also, the EC50 in series [3] (setting [15]) was 9.1 ± 2.9 µM; in [5] (setting [15]) it was 8.6 ± 1.7 µM; in series [6] (setting [15]), 19 ± 3 µM.

On to `CN(C)C(=N)N=C(N)N` [Metformin], for which, in series [2], the apoptotic cell population entry was “markedly lower”. Besides, the “anticancer effects in an MDA-MB-231 mammary fat model” value in series [11] is given as “negligible”. Further, the cytotoxicity in words entry in [12] was “devoid of cytotoxicity”. The EC50 in series [3] (Homo sapiens, A2780cisR, 72 h) is over 1000 µM; in [5] (Homo sapiens, A2780, 72 h), over 1000 µM; in series [6] (Homo sapiens, MDA-MB-231, 72 h) it was over 1000 µM. Besides, the “redox activity in words” value in series [13] is given as “did not show any redox activity”.

With `[H]/N=C(/N)N/C(=N/[H])NCCc1ccccc1` [Phenformin], the EC50 was found to be 246 ± 24 µM in series [3] (Homo sapiens, A2780cisR, 72 h); 104 ± 21 µM in series [5] (Homo sapiens, A2780, 72 h); 608 ± 23 µM in [6] (Homo sapiens, MDA-MB-231, 72 h).

On to `COc1cccc2c1C(=O)c1c(O)c3c(c(O)c1C2=O)C[C@@](O)(C(=O)CO)C[C@@H]3O[C@H]1C[C@H](N)[C@H](O)[C@H](C)O1` [doxorubicin], for which, in series [4] (read-out: IC50 value in AC10 cells (heart toxicity)), the IC50 was found to be 2.3 ± 0.2 µM.

Take “[Au^III(2-phenylpyridine)(metformin)]PF6 [Compound 1met]”: in series [14], the “AMPK and mTOR phosphorylation” value was “dose-dependent increase of AMPK phosphorylation and decrease of mTOR phosphorylation”.
